Type in all cases: cell-based, human
One experiment deals with HepG2 cells. Put plainly: In vitro IC50 by MTS assay, HepG2 liver cancer cells. As to conditions: HepG2, 48 hr incubation, MTS assay (490 nm). How it is done:
(§1) To Determine the In Vitro IC50 Values on Ten Human Cancer Cell Lines
(§2) HepG2 and PLC/PRF/5 cells are cultured in DMEM medium. Hep3B cells are cultured in MEM medium. NCI-H460 and 786-0 cells are cultured in RPMI 1640 medium. Caki-1, HCT-116, and SK-OV-3 cells are cultured in McCoy's 5A medium. MDA-MB-231 cells are cultured in L15 medium. All cells are cultured in corresponding media supplemented with 10% FBS, at 37° C., 5% CO2, and 95% humidity. All media are purchased from GIBCO.
(§3) CellTiter 96® Aqueous MTS reagent powder (Cat. No. G1112, Promega) Phenazine methosulfate (PMS) (Cat. No. P9625, Sigma)
(§4) Cells are harvested during the logarithmic growth period and counted with hemocytometer. Add 90 μl cell suspensions to 96-well plates (triplicates for each cell concentration), the final cell densities are 2×10^4, 1×10^4, or 5×10^3 cells/well. Prepare a series of drug concentrations for each of JP0916 and cisplatin and dispense 10 μl drug solution in each well (triplicate for each drug concentration). Incubate the plate for 48 hr then measure by MTS assay (490 nm).

Another experiment has as its system Hep3B cells. Kind of experiment: In vitro IC50 by MTS assay, Hep3B liver cancer cells. As to conditions: 48 hr incubation, MTS assay (490 nm). The procedure: as §1, §2, §3, §4
The next experiment has as its system PC/PRF/5 cells. Put plainly: In vitro IC50 by MTS assay, PC/PRF/5 liver cancer cells. As to conditions: PC/PRF/5, 48 hr incubation, MTS assay (490 nm). How it is done: as §1, §2, §3, §4
The test system of the next experiment is 786-0 cells. Put plainly: In vitro IC50 by MTS assay, 786-0 kidney cancer cells. As to conditions: 786-0, 48 hr incubation, MTS assay (490 nm). The procedure:
as §1, §2, §3, §4
A general note: Formazan colour is commonly taken as a measure of viable cells.

Another experiment deals with Caki-1 cells. Kind of experiment: In vitro IC50 by MTS assay, Caki-1 kidney cancer cells. As to conditions: Caki-1, 48 hr incubation, MTS assay (490 nm). How it is done:
as §1, §2, §3, §4

A further experiment deals with MDA-MB-231 cells. Kind of experiment: In vitro IC50 by MTS assay, MDA-MB-231 breast cancer cells. As to conditions: MDA-MB-231, 48 hr incubation, MTS assay (490 nm). How it is done:
as §1, §2, §3, §4

The test system of the next experiment is HCT-116 cells. Put plainly: In vitro IC50 by MTS assay, HCT-116 colon cancer cells. As to conditions: HCT-116, 48 hr incubation, MTS assay (490 nm). The procedure:
as §1, §2, §3, §4

For the next experiment, the system named is NCI-H460 cells. Kind of experiment: In vitro IC50 by MTS assay, NCI-H460 NSCLC cells. As to conditions: NCI-H460, 48 hr incubation, MTS assay (490 nm). The procedure:
as §1, §2, §3, §4

For another experiment, the system named is SK-OV-3 cells. Kind of experiment: In vitro IC50 by MTS assay, SK-OV-3 ovarian cancer cells. As to conditions: SK-OV-3, 48 hr incubation, MTS assay (490 nm). The procedure: as §1, §2, §3, §4

As a reminder, the IC50 is the concentration that gives 50% inhibition. Lower therefore signals greater potency. For “cis-diamminedichloroplatinum(II) [Cisplatin]”, the IC50 with HepG2 cells is 25.6 µM; with Hep3B cells it was 3.08 µM; in the experiment with PC/PRF/5 cells it was 21.8 µM; in the experiment on 786-0 cells, 3.54 µM; in the experiment with Caki-1 cells, 10.5 µM; with MDA-MB-231 cells it was 53.2 µM. In addition, the IC50 in the experiment on HCT-116 cells stood at 10.6 µM; in the experiment on NCI-H460 cells it was 8.56 µM; in the experiment with SK-OV-3 cells, 21.6 µM.
